Results: patent US20070155673A1, “USE OF BVDU FOR INHIBITING THE GROWTH OF HYPERPROLIFERATIVE CELLS” (Celmed Oncology (USA), Inc., priority 1999, published 2007)
Blank lines part the entries; values can stand above or below the compound they belong to.

Experiments:
MCF7 TDX [1] = test: alamarBlue cytotoxicity assay; assay type: cell-based; conditions: for IC50: alamarBlue
Protocol: (§1) alamarBlue cytotoxicity assay Tumor cells growing exponentially were transferred to 384 well flat bottom tissue culture plates. H630 R10 were plated at a density of 500 cells per well and MCF7 TDX at 250 cells/well in 25 μL of complete medium (RPMI 1640+10% fetal bovine serum+antibiotics/antimyotics). After 24 hours (day 0), 25 μL of complete medium containing the compounds (NB1011 or BVdU) over the dose range of 10^−3 to 10^−10 M were added in triplicate. Drug exposure time was 120 hours (day 5), after which growth inhibition was assayed. The redox indicator alamarBlue was added to each well at 10% (v/v). After 1-hour incubation at room temperature, fluorescence was monitored at 536 nm excitation and 595 nm emission. Concentration versus relative fluorescence units (RFU) was plotted, and sigmoid curves were fit using the Hill equation. IC50, indicated by the inflection point of the curve, is the concentration at which growth is inhibited by 50%.
(§2) H630 R10 is a colon cancer tumor cell line selected for resistance to 5-FU, and overexpresses thymidylate synthase protein approximately 20-fold. MCF7 TDX is a breast tumor cell line selected with Tomudex, and overexpresses thymidylate synthase to approximately the same extent.

H630 R10 [2] = test: alamarBlue cytotoxicity assay; assay type: cell-based; conditions: for IC50: alamarBlue, drug exposure 120 hours, 5-FU resistant colon tumor cell line
Protocol: as §1, §2

H630 R10 [3] = conditions: previously shown; cited from earlier work
TKC HT1080 #22 = test: Sensitivity of thymidine kinase transfected HT1080 cell lines to BVdU; assay type: cell-based; conditions: Homo sapiens, HT-1080; TKC HT1080 #22, TK protein level 400 units
Source text: (§3) Cell lines that overexpress human thymidine kinase (TK) are also more sensitive to BVdU, providing another criterion for identification of tumor susceptibility to BVdU.

PC HT1080 = test: as above; assay type: cell-based; conditions: Homo sapiens, HT-1080; PC HT1080, TK protein level 100 units
Source text: as §3

TKC HT1080 #5 = test: as above; assay type: cell-based; conditions: Homo sapiens, HT-1080; TKC HT1080 #5, TK protein level 200 units
Source text: as §3

TS HT1080 #12 = test: Cyquant and crystal violet cytotoxicity; assay type: cell-based, human; conditions: for IC50: TS HT1080 #12, tumor - fibrosarcoma, high TS transfectant, 72 hour incubation; for normal/tumor IC50 ratio: normal IC50 = average of CCD18co and Det551
Protocol: (§4) Cvquant and Crystal Violet Cytotoxicity Exponentially growing cells were transferred at a density of 1.0-4.0×10^3 cells per well to a 96-well tissue culture plate in growth medium (RPMI1640+10% FBS+antibiotics). Cells were allowed to attach for 24 hours in standard culture conditions (37° C., 5% CO2, 95% humidity). Experimental compounds were then applied in duplicate half log serial dilutions. After additional 72 hour incubation, surviving cells were stained with crystal violet (adherent cells) or Cyquant (semi or non—adherent cells). Absorbence or fluorescence, respectively, was monitored. IC50 values were derived from sigmoid curves fit according to the Hill inhibitory Emax model.
Cell transfection. HT1080 cells were grown in RPMI1640 medium supplemented with 10% FBS, and transfected with TS expression vector. 48 hours later, transfected cells were trypsinized and replated in culture medium containing 750 μg/ml G418. After selection with G418 for two weeks, surviving cells were cloned. Clones with different TS levels were selected based on Western blot analysis, and expanded into cell lines. The stable HT1080 cells transfected with pcDNA3.1(−) only were used as control.
(§5) The selectivity of a given antitumor agent can be assessed by comparing the IC50 for a tumor cell line to the IC50 of a normal cell strain growing under the same conditions, determined and Cyquant staining for non-adherent cells, and crystal violet staining for adherent cells. The selectivity is given here as the ratio of normal cell IC50 to tumor cell IC50. In this case, normal cell IC50 is defined as the average of the value for CCD18co and Det551 to allow for direct comparison of the established cancer drug 5-FU with BVdU.

Det 551 = test: Cyquant and crystal violet cytotoxicity; assay type: cell-based; conditions: for IC50: Det 551, normal embryonic skin, 72 hour incubation
Protocol: as §4, §5

MCF7 TDX [4] = test: Cyquant and crystal violet cytotoxicity; assay type: cell-based; conditions: for IC50: tumor - breast, TDX resistant, high TS, 72 hour incubation; for normal/tumor IC50 ratio: normal IC50 = average of CCD18co and Det551
Protocol: as §4, §5

SKBR3 V = test: Cyquant and crystal violet cytotoxicity; assay type: cell-based; conditions: vector control, low TS, 72 hour incubation
Protocol: as §4, §5

MCF7 = test: Cyquant and crystal violet cytotoxicity; assay type: cell-based; conditions: for IC50: MCF7, tumor - breast, parental control, 72 hour incubation; for normal/tumor IC50 ratio: normal IC50 = average of CCD18co and Det551
Protocol: as §4, §5

SW527TDX = test: Cyquant and crystal violet cytotoxicity; assay type: cell-based; conditions: for normal/tumor IC50 ratio: normal IC50 = average of CCD18co and Det551; for IC50: tumor - breast, TDX resistant, high TS, 72 hour incubation
Protocol: as §4, §5

SW527P = test: Cyquant and crystal violet cytotoxicity; assay type: cell-based; conditions: tumor - breast, parental control, 72 hour incubation
Protocol: as §4, §5

H630-R10 = test: Cyquant and crystal violet cytotoxicity; assay type: cell-based; conditions: for IC50: H630-R10, tumor - colon, 5-FU resistant, high TS, 72 hour incubation; for normal/tumor IC50 ratio: normal IC50 = average of CCD18co and Det551
Protocol: as §4, §5

CCD18co = test: Cyquant and crystal violet cytotoxicity; assay type: cell-based; conditions: for IC50: CCD18co, normal colon epithelium, 72 hour incubation
Protocol: as §4, §5

SKBR3 #52 = test: Cyquant and crystal violet cytotoxicity; assay type: cell-based; conditions: for IC50: SKBR3 #52, tumor - breast, high TS transfectant, 72 hour incubation; for normal/tumor IC50 ratio: normal IC50 = average of CCD18co and Det551
Protocol: as §4, §5

- IC50 (TKC HT1080 #22): 162 µM
- IC50 (PC HT1080): 303 µM
- IC50 (TKC HT1080 #5): 275 µM
Structure (SMILES): O=c1[nH]c(=O)n([C@H]2C[C@H](O)[C@@H](CO)O2)cc1/C=C/Br [BVdU, (E)-5-(2-bromovinyl)-2′-deoxyuridine]
- IC50 (MCF7 TDX [1]; Homo sapiens, MCF7, Tomudex resistant breast cancer cell line): 5 nM
- IC50 (MCF7 TDX [1]; Homo sapiens, MCF7, drug exposure 120 hours, Tomudex resistant breast tumor cell line): 5 nM
- fold more active than NB1011 (MCF7 TDX [1]; MCF7 TDX cells, from IC50): ~25 fold
- fold less active than NB1011 (H630 R10 [2]; H630R10 cells, from IC50): ~6 fold
- IC50 (H630 R10 [2]; Homo sapiens, NCI-H630): 303 µM
- sensitivity of H630 R10 (in words) (H630 R10 [3]): insensitive
- IC50 (TS HT1080 #12; Homo sapiens, HT-1080): 5.7 ± 1.8 µM
- times the 5-FU normal/tumor ratio (TS HT1080 #12; TS HT1080 #12): 961 times
- normal/tumor IC50 ratio (TS HT1080 #12; TS HT1080 #12): 615
- IC50 (Det 551): 2.19 ± 0.682 mM
- anti-proliferative effect (in words) (Det 551; normal cell strain representing skin, even high concentrations): not affected
- times the 5-FU normal/tumor ratio (MCF7 TDX [4]): 18,000 times
- IC50 (MCF7 TDX [4]; Homo sapiens): 0.6 ± 0.5 µM
- normal/tumor IC50 ratio (MCF7 TDX [4]): 5847
- IC50 (SKBR3 V; Homo sapiens, SK-BR-3, tumor - breast): > 1000 µM
- IC50 (MCF7; Homo sapiens): 1250 µM
- selectivity relative to 5-FU (MCF7; MCF7): more than ten times as selective as 5-FU
- normal/tumor IC50 ratio (MCF7; MCF7): 2.8
- times the 5-FU normal/tumor ratio (SW527TDX): 5,000 times
- normal/tumor IC50 ratio (SW527TDX): 540
- IC50 (SW527TDX): 6.5 µM
- IC50 (SW527P): > 1000 µM
- times the 5-FU normal/tumor ratio (H630-R10; H630-R10): 42 times
- IC50 (H630-R10): 561 ± 157 µM
- normal/tumor IC50 ratio (H630-R10; H630-R10): 6.3
- IC50 (CCD18co; Homo sapiens, CCD-18Co): 4.82 ± 0.128 mM
- anti-proliferative effect (in words) (CCD18co; normal cell strain representing colon, even high concentrations): not affected
- IC50 (SKBR3 #52; Homo sapiens, SK-BR-3): 8.3 µM
- times the 5-FU normal/tumor ratio (SKBR3 #52; SKBR3 #52): 2,000 times
- normal/tumor IC50 ratio (SKBR3 #52; SKBR3 #52): 423

Structure (SMILES): O=c1[nH]cc(F)c(=O)[nH]1 [5-FU, reference compound]
- IC50 (TS HT1080 #12): 3.5 ± 0.2 µM
- normal/tumor IC50 ratio (TS HT1080 #12; TS HT1080 #12): 0.64
- IC50 (Det 551): 0.0031 ± 0.0005 mM
- normal/tumor IC50 ratio (MCF7 TDX [4]): 0.33
- IC50 (MCF7 TDX [4]): 6.7 ± 2 µM
- IC50 (SKBR3 V; tumor - breast): 7.4 ± 2.4 µM
- IC50 (MCF7): 8.8 ± 5.9 µM
- normal/tumor IC50 ratio (MCF7; MCF7): 0.25
- normal/tumor IC50 ratio (SW527TDX): 0.11
- IC50 (SW527TDX): 20.4 ± 9.9 µM
- IC50 (SW527P): 9.1 ± 1.3 µM
- IC50 (H630-R10): 143 ± 5.9 µM
- normal/tumor IC50 ratio (H630-R10; H630-R10): 0.15
- IC50 (CCD18co): 0.0014 ± 0.0004 mM
- IC50 (SKBR3 #52): 9.1 ± 1.6 µM
- normal/tumor IC50 ratio (SKBR3 #52; SKBR3 #52): 0.24

Structure (SMILES): C[C@H](NP(=O)(OC[C@H]1O[C@@H](n2cc(/C=C/Br)c(=O)[nH]c2=O)C[C@@H]1O)Oc1ccccc1)C(=O)O (stereo partly drawn) [NB1011, reference compound]
- IC50 (MCF7 TDX [1]; drug exposure 120 hours, Tomudex resistant breast tumor cell line): 130 nM
- IC50 (H630 R10 [2]): 57 µM
